# Laboratory results taken from patent US12037458B2, “Process and premix for incorporating optical brighteners into a polymeric composition” (Elkem Silicones USA Corp., priority 2019, dated 2024).
# Legend:
# [1] = Solubility of different optical brighteners in GLYMO, heated mixing (MM2); format: physicochemical; conditions: for # of particles observed MM2 / Brightness MM2 / Form a clear solution? Mixing Method 2 / Amount of undissolved OBA MM2: in GLYMO; for # of particles observed MM2 / Brightness MM2 / Amount of undissolved OBA MM2: heated mixing 50° C. (MM2); for Form a clear solution? Mixing Method 2: heated mixing 50° C. under nitrogen (MM2)
# [2] = Solubility of Tinopal OB CO in different silanes / titanate (room-temperature mixing, black light inspection); conditions: for Forms a clear solution? / Amount of undissolved Tinopal ® OB CO: 0.072 g Tinopal OB CO in 10 g of compound; for Forms a clear solution?: mixed at room temperature, stored overnight; for Amount of undissolved Tinopal ® OB CO: room temperature; for # of particles observed: OBA particles, naked eye under black light; for Brightness: drop of mixture between glass plates under black light; for Solubility of Tinopal OB CO in the compound (in words): summary of Table 2
# [3] = Solubility of different optical brighteners in GLYMO, RT mixing (MM1)
# [4] = Saturation of optical brightener in GLYMO; format: physicochemical
# Experimental: To determine the saturation level of optical brightener in GLYMO, increasing amounts of Tinopal® OB CO were mixed with GLYMO (0.25%, 0.5%, 1.0%, 2.0%, 3.0% Tinopal® OB CO), heated at 50° C. for one hour and then cooled while mixing.
# [5] = heated at 50° C. for one hour, cooled while mixing
# of particles observed MM2 [1],Brightness MM2 [1],Form a clear solution? Mixing Method 2 [1],Compound,Forms a clear solution? [2],Amount of undissolved Tinopal ® OB CO [2],# of particles observed [2],Brightness [2],Solubility of Tinopal OB CO in the compound (in words) [2],"Amount of undissolved OBA MM1 ([3]; in GLYMO, RT mixing (MM1))","Amount of undissolved optical brightener ([3]; in GLYMO, room temperature)",Amount of undissolved OBA MM2 [1],other results
>300,high,no,"C(=Cc1ccc(-c2nc3ccccc3o2)cc1)c1ccc(-c2nc3ccccc3o2)cc1 [Benetex ® OB-1 HP, benzoxazole, 2,2′-(1,2-ethenediyldi-4,1-phenylene)bis-]",–,–,–,–,–,–,–,–,–
>100,low,no,"O=S(=O)(O)c1ccccc1C=Cc1ccc(-c2ccc(C=Cc3ccccc3S(=O)(=O)O)cc2)cc1 [Benetex ® OB-M1, benzenesulfonic acid, 2,2′-([1,1′-biphenyl]-4,4′-diyldi-2,1-ethenediyl)bis-]",–,–,–,–,–,–,–,–,–
–,–,–,C=C(C)C(=O)OCCC[Si](OC)(OC)OC [MEMO],Yes,zero,0,high,relatively good solubility,–,–,–,–
zero,high,Yes,CC(C)(C)c1ccc2oc(-c3ccc(-c4nc5cc(C(C)(C)C)ccc5o4)s3)nc2c1 [Tinopal ® OB CO],–,–,–,–,–,low,low,Zero,"Concentration in GLYMO at which homogenously distributed [4, 5]: less than 1.0%; Concentration in GLYMO at which visible particles (agglomerates) were present [4, 5]: ≥ 1.0%; Average particle size of visible particles (agglomerates) ([4]; in GLYMO at concentrations of 1.0% or greater): ≥ 50 μm; Effect of heating (MM2) on solubility in GLYMO ([1]; MM2 versus MM1): improved the solubility; Amount of undissolved OBA MM2 ([1]; listed as Tinopal® OB CO): no undissolved particles"
–,–,–,"C=C[Si](OC)(OC)OC [VTMO, vinyltrimethoxysilane]",Yes,low,0,high,relatively good solubility,–,–,–,–

Compound,# of particles observed MM2 [1],Brightness MM2 [1],Form a clear solution? Mixing Method 2 [1],Forms a clear solution? [2],Amount of undissolved Tinopal ® OB CO [2],# of particles observed [2],Brightness [2],Solubility of Tinopal OB CO in the compound (in words) [2],"Amount of undissolved OBA MM1 ([3]; in GLYMO, RT mixing (MM1))","Amount of undissolved optical brightener ([3]; in GLYMO, room temperature)",Amount of undissolved OBA MM2 [1],other results
CCN(CC)c1nc(Nc2ccc(C=Cc3ccc(Nc4nc(Nc5cc(S(=O)(=O)[O-])ccc5S(=O)(=O)[O-])nc(N(CC)CC)n4)cc3S(=O)(=O)[O-])c(S(=O)(=O)[O-])c2)nc(Nc2cc(S(=O)(=O)[O-])ccc2S(=O)(=O)[O-])n1.[Na+].[Na+].[Na+].[Na+].[Na+].[Na+] [Tinopal ® SFP],10-20,low,No,–,–,–,–,–,high,high,Low,"Forms a clear solution? ([3]; 0.072 g optical brightener in 10 g GLYMO, room temperature): No; # of particles observed MM1 ([3]; in GLYMO, RT mixing (MM1)): >300; Brightness MM1 ([3]; in GLYMO, RT mixing (MM1)): low; Form a clear solution? Mixing Method 1 ([3]; in GLYMO, RT mixing (MM1)): no; # of particles observed ([3]; in GLYMO, naked eye under black light): >300; Brightness ([3]; in GLYMO, under black light): low"
